Blank lines part the entries; values can stand above or below the molecule they belong to. Active and inactive are the calls of the source. The rule behind the calls is not given here.
How the values were obtained:
[1] = molecular target: T1, NAD-dependent protein deacetylase sirtuin-1 (Homo sapiens) (UniProt Q96EB6); test: Inhibition of recombinant SIRT1 assessed as lysine deacetylation up to 50 uM
T1 sequence (whole entry): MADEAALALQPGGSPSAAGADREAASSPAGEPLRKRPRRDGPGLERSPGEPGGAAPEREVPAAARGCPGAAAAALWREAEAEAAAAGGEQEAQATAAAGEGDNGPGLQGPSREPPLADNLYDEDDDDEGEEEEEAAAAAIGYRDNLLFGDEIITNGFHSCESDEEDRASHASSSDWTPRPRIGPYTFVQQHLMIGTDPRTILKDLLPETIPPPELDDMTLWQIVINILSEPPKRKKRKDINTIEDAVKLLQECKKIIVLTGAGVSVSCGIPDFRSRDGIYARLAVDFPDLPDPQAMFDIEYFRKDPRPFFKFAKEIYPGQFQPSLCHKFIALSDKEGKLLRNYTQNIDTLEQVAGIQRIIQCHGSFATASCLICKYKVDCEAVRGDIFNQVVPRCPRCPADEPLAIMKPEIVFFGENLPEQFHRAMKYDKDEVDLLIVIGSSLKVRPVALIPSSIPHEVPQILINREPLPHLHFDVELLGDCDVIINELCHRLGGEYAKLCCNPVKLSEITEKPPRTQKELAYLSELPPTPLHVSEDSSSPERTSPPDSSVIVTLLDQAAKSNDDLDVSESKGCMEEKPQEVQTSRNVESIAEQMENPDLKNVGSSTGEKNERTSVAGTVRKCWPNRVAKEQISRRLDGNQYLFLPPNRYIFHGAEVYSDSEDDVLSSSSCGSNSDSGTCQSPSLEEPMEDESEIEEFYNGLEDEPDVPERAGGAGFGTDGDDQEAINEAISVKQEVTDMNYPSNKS

[2] = molecular target: T2, NAD-dependent protein deacetylase sirtuin-2 (Homo sapiens) (UniProt Q8IXJ6); test: Inhibition of recombinant SIRT2 assessed as lysine deacetylation at 25 uM relative to control; design: scale not given: the % may be the effect or the level left
T2 sequence (whole entry): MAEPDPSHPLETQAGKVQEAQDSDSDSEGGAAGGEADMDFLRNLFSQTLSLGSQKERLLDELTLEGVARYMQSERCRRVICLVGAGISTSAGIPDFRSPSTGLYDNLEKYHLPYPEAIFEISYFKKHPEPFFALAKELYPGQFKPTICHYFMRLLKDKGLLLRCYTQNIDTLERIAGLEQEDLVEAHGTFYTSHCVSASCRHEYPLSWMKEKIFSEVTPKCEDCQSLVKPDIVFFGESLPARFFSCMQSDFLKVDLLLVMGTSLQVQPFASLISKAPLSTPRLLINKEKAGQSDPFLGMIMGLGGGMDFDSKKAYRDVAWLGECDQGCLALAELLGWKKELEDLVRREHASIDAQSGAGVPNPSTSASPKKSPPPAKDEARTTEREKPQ

[3] = molecular target: T2, NAD-dependent protein deacetylase sirtuin-2 (Homo sapiens); test: Inhibition of recombinant SIRT2 assessed as lysine deacetylation at 1 to 50 uM
[4] = molecular target: T3, NAD-dependent protein deacetylase sirtuin-3, mitochondrial (Homo sapiens) (UniProt Q9NTG7); test: Inhibition of recombinant SIRT3 assessed as lysine deacetylation up to 50 uM
T3 sequence (whole entry): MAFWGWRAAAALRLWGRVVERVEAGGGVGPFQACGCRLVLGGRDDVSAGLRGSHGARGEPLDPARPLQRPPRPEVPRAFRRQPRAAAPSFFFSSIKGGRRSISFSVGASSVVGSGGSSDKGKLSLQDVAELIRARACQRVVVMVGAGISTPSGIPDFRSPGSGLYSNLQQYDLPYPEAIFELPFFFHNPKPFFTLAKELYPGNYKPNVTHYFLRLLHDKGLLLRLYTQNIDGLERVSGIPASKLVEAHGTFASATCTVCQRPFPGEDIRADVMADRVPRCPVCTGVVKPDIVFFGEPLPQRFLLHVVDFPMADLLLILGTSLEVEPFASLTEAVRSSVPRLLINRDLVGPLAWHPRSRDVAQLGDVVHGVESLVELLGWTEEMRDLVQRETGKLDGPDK

[5] = molecular target: T2, NAD-dependent protein deacetylase sirtuin-2 (Homo sapiens); test: Inhibition of recombinant SIRT2 assessed as lysine deacetylation at 6.25 to 25 uM
[6] = molecular target: T2, NAD-dependent protein deacetylase sirtuin-2 (Homo sapiens); test: Inhibition of recombinant SIRT2 assessed as lysine deacetylation at 50 uM relative to control; design: scale not given: the % may be the effect or the level left
[7] = molecular target: T1, NAD-dependent protein deacetylase sirtuin-1 (Homo sapiens); test: Inhibition of recombinant SIRT1 assessed as lysine deacetylation at 10 uM
[8] = molecular target: T3, NAD-dependent protein deacetylase sirtuin-3, mitochondrial (Homo sapiens); test: Inhibition of recombinant SIRT3 assessed as lysine deacetylation at 10 uM relative to control
[9] = molecular target: T2, NAD-dependent protein deacetylase sirtuin-2 (Homo sapiens); test: Inhibition of recombinant SIRT2 assessed as lysine deacetylation at 10 uM relative to control; design: scale not given: the % may be the effect or the level left

inhibition [3]: Active | inhibition [4]: inactive | inhibition [5]: Active | inhibition [1]: inactive
SMILES: CN(C(=O)c1cccc(S(=O)(=O)N(C)c2ccc(Br)cc2)c1)c1ccc(Br)cc1

Activity [6]: 57%
SMILES: CN(C(=O)c1cccc(S(=O)(=O)N(C)c2ccc(Br)cc2)c1)c1ccc(F)cc1

inhibition [3]: Active | inhibition [7]: inactive | Activity [9]: 54% | inhibition [8]: inactive
SMILES: CN(C(=O)c1cccc(S(=O)(=O)N(C)c2ccc(Br)cc2)c1)c1ccc(Cl)cc1

Activity [9]: 72%
SMILES: CN(C(=O)c1cccc(S(=O)(=O)N(C)c2ccc(Cl)cc2)c1)c1ccc(Br)cc1

inhibition [7]: inactive | Activity [9]: 55% | inhibition [8]: inactive
SMILES: CN(C(=O)c1cccc(S(=O)(=O)N(C)c2ccc(C(F)(F)F)cc2)c1)c1ccc(Br)cc1

Activity [6]: 76%
SMILES: CN(C(=O)c1cccc(S(=O)(=O)N(C)c2ccc(Br)cc2)c1)c1ccc(C(F)(F)F)cc1

Second part, the molecule before the results:

SMILES: O=C(Nc1cccc([N+](=O)[O-])c1)c1cccc(S(=O)(=O)N2CCCCCC2)c1
inhibition [1]: Active

SMILES: O=C(Nc1ccc(Br)cc1)c1cccc(S(=O)(=O)Nc2ccc(Br)cc2)c1
Activity [2]: 85%

SMILES: C=CCN(c1ccc(Br)cc1)S(=O)(=O)c1cccc(C(=O)Nc2ccc(Br)cc2)c1
Activity [2]: 92%

SMILES: O=C(Nc1ccc(Br)cc1)c1cccc(S(=O)(=O)N(Cc2ccccc2)c2ccc(Br)cc2)c1
Activity [2]: 80%

SMILES: CN(c1ccc(Br)cc1)S(=O)(=O)c1cccc(C(=O)Nc2ccc(Br)cc2)c1
inhibition [4]: inactive | inhibition [5]: Active | inhibition [1]: inactive | Activity [2]: 56%

SMILES: CN(C(=O)c1cccc(S(=O)(=O)N(C)c2ccc(Cl)cc2)c1)c1ccc(Cl)cc1
inhibition [3]: Active | inhibition [7]: inactive | inhibition [8]: 5%

SMILES: CCN(c1ccc(Br)cc1)S(=O)(=O)c1cccc(C(=O)Nc2ccc(Br)cc2)c1
Activity [2]: 82%
